Molecules are shown by their SMILES.

For the experiment, the system named is lamina propria lymphocytes. Briefly: Apoptosis of anti-CD2/CD28 activated lamina propria lymphocytes in vitro. In kind it is cell-based, human. As to conditions: ulcerative colitis; 5 days. An excerpt: Isolation of primary CD4^+ T lymphocytes and lamina propria cells: Human peripheral blood mononuclear cells (PBMCs) from healthy volunteers (25-42 years of age) and patients with Crohn's disease (31-65 years of age) were isolated using Ficoll-Hypaque gradients. PBMCs were further purified using CD4 monoclonal antibodies attached to immunomagnetic beads according to the manufacturer's protocol, followed by treatment with Detachabead (Dynal; Oslo, Norway). In some cases, CD4^+ T cells were further separated by negative selection techniques using CD45RO or CD45RA monoclonal antibodies (PharMingen; Heidelberg, Germany) and immunomagnetic beads (Dynal). […]
For FACS analysis, apoptotic cells were detected by staining with annexin V and propidium iodide using the Annexin V FITC Apoptosis Detection Kit I (PharMingen) (Atreya et al., Nat. Med. 6:583-588 (2000)). […] To verify the results obtained with the annexin V/propidium iodide staining, analysis of T cells displaying DNA fragmentation was also determined by the Nicoletti technique, as described in (Nicoletti et al., J. Immunol. Methods 139:271-279 (1991)). […] Finally, cells were analyzed on a FACScan flow cytometer. […]

Regarding `Sc1ncnc2nc[nH]c12` [6-MP, 6-mercaptopurine], the “apoptosis in anti-CD2 plus anti-CD28 activated lamina propria lymphocytes” value is listed as “capable of inducing apoptosis”.

For the origin of these results see patent US7524851B2 (Robert Bosch Gesellschaft fur Medizinische Forschung (RBMF), priority 2003, dated 2009).
